Data as given in ChEMBL document CHEMBL1157586 (Bioorg Med Chem, 2010).
pIC50: −log10 of the molar value. ≈ marks a conversion by molar mass, not a printed value.

Experiments:
A2780 = experiment: Antiproliferative activity against human A2780 cells after 72 hrs by CellTiter-Glo luminescence assay; details: A2780, 72 h
[1] = target: Cyclin-dependent kinase 2/cyclin A (Homo sapiens, UniProt P24941); experiment: Inhibition of human CDK2/cyclin A expressed in Escherichia coli BL21 by scintillation proximity assay
[2] = Solubility at pH 7; format: physicochemical; details: buffer

pIC50 (A2780) | pIC50 [1] | solubility [2] [µM] | SMILES
5.57 | 7.68 | > 225 | CN1CCC(C(=O)N2Cc3c(NC(=O)NCc4ccccc4)n[nH]c3C2(C)C)CC1
6.74 | 7.34 | > 225 | CN1CCN(C(=O)N2Cc3c(NC(=O)c4ccc(F)cc4)n[nH]c3C2(C)C)CC1
6.96 | 7.31 | 205 (≈ 70 µg/mL) | CC(C)(C)C(=O)N1Cc2c(NC(=O)c3ccncc3)n[nH]c2C1(C)C
5.85 | 7.82 | > 225 | CN1CCC(C(=O)N2Cc3c(NC(=O)C4CC4)n[nH]c3C2(C)C)CC1
6.85 | 8.05 | > 225 | CN1CCC(C(=O)N2Cc3c(NC(=O)C4CCC4)n[nH]c3C2(C)C)CC1
7.52 | 8.00 | 155 (≈ 60.1 µg/mL) | CN1CCC(C(=O)N2Cc3c(NC(=O)c4cccs4)n[nH]c3C2(C)C)CC1
6.54 | 7.52 | > 225 | CCN1CCC(C(=O)N2Cc3c(NC(=O)c4ccc(F)cc4)n[nH]c3C2(C)C)CC1
6.24 | 7.11 | > 225 | CN(C)CC(=O)Nc1n[nH]c2c1CN(C(=O)C(C)(C)C)C2(C)C
6.39 | 7.85 | > 225 | CCN1CCC(C(=O)N2Cc3c(NC(=O)CC(C)C)n[nH]c3C2(C)C)CC1
< 5.00 | 6.27 | > 225 | CC(=O)N1CCN(C(=O)N2Cc3c(NC(=O)c4ccc(F)cc4)n[nH]c3C2(C)C)CC1
6.49 | 7.62 | > 225 | CC(C)CC(=O)Nc1n[nH]c2c1CN(C(=O)C1CCN(C3CC3)CC1)C2(C)C
6.92 | 7.82 | > 225 | CN1CCC(C(=O)N2Cc3c(NC(=O)c4ccc(Cl)cc4)n[nH]c3C2(C)C)CC1
6.57 | 7.57 | 219 (≈ 94.5 µg/mL) | CN1CCC(C(=O)N2Cc3c(NC(=O)c4ccc5ccccc5c4)n[nH]c3C2(C)C)CC1
6.46 | 6.67 | > 225 | CN1CCC(C(=O)Nc2n[nH]c3c2CN(C(=O)C(C)(C)C)C3(C)C)CC1
6.16 | 7.30 | 207 (≈ 70.7 µg/mL) | CC(C)(C)C(=O)N1Cc2c(NC(=O)c3cccnc3)n[nH]c2C1(C)C
6.57 |  | 235 (≈ 84.2 µg/mL) | CC(C)(C)C(=O)N1Cc2c(NC(=O)c3ccc(F)cc3)n[nH]c2C1(C)C
6.89 | 7.80 | > 225 | CN1CCC(C(=O)N2Cc3c(NC(=O)c4cc(F)cc(F)c4)n[nH]c3C2(C)C)CC1

pIC50 (A2780) | pIC50 [1] | solubility [2] [µM] | SMILES
6.19 | 7.52 | 204 (≈ 78.6 µg/mL) | CC1(C)c2[nH]nc(NC(=O)c3ccc(F)cc3)c2CN1C(=O)C1CCNCC1
6.92 | 7.64 | > 225 | CN1CCC(C(=O)N2Cc3c(NC(=O)c4ccc(F)cc4)n[nH]c3C2(C)C)CC1
< 5.00 | 5.32 | 204 (≈ 87.2 µg/mL) | CC(=O)N1CCC(C(=O)N2Cc3c(NC(=O)c4ccc(F)cc4)n[nH]c3C2(C)C)CC1
6.30 | 7.60 | > 225 | CN1CCC(C(=O)N2Cc3c(NC(=O)c4ccncc4)n[nH]c3C2(C)C)CC1
6.19 | 6.77 | > 225 | CC(C)(C)C(=O)N1Cc2c(NC(=O)C3CCNCC3)n[nH]c2C1(C)C
< 5.30 | 7.22 | > 225 | CC1(C)c2[nH]nc(NC(=O)c3ccc(F)cc3)c2CN1C(=O)N1CCN(CCO)CC1
6.85 | 8.30 | > 225 | CN1CCC(C(=O)N2Cc3c(NC(=O)c4ccsc4)n[nH]c3C2(C)C)CC1
6.46 | 8.00 | > 225 | CN1CCC(C(=O)N2Cc3c(NC(=O)Nc4cccc(F)c4)n[nH]c3C2(C)C)CC1
7.22 | 7.80 | 200 | OC[C@H]1O[C@H](OC[C@H]2O[C@@H](O[C@]3(CO)O[C@H](CO)[C@@H](O)[C@@H]3O)[C@H](O)[C@@H](O)[C@@H]2O)[C@H](O)[C@@H](O)[C@H]1O.OC[C@H]1O[C@H](OC[C@H]2O[C@H](O[C@]3(CO)O[C@H](CO)[C@@H](O)[C@@H]3O)[C@H](O)[C@@H](O)[C@@H]2O)[C@H](O)[C@@H](O)[C@H]1O
6.80 | 7.64 | > 225 | CN1CCC(C(=O)N2Cc3c(NC(=O)c4ccccc4)n[nH]c3C2(C)C)CC1
6.42 | 7.17 | > 225 | CC1(C)c2[nH]nc(NC(=O)c3ccc(F)cc3)c2CN1C(=O)C1CCN(C2CC2)CC1
< 5.30 | 7.48 | > 225 | CN1CCC(C(=O)N2Cc3c(NC(=O)c4ccco4)n[nH]c3C2(C)C)CC1
7.22 | 7.59 | 191 (≈ 85.9 µg/mL) | CN1CCC(C(=O)N2Cc3c(NC(=O)c4ccc(C(F)(F)F)cc4)n[nH]c3C2(C)C)CC1
 | 5.46 | 55 (≈ 25.4 µg/mL) | CC1(C)c2[nH]nc(NC(=O)c3ccc(F)cc3)c2CN1C(=O)N1CCN(c2ccccc2)CC1
6.19 | 7.96 | > 225 | CCCNC(=O)Nc1n[nH]c2c1CN(C(=O)C1CCN(C)CC1)C2(C)C
6.70 | 7.85 | > 225 | CN1CCC(C(=O)N2Cc3c(NC(=O)c4cccc(F)c4)n[nH]c3C2(C)C)CC1
7.00 | 7.85 | > 225 | CN1CCC(C(=O)N2Cc3c(NC(=O)c4ccc(F)c(F)c4)n[nH]c3C2(C)C)CC1
